In US8119633B2, “Substituted sulfonamide compounds” (Gruenenthal GmbH, priority 2007, dated 2012):

target: T1, human bradykinin receptor 1 (B1R) (Homo sapiens, UniProt P46663); experiment: Functional study on the bradykinin receptor 1 (B1R), human: FLIPR Ca2+ influx assay; type: cell-based; details: test substance 10 μM; CHO K1 cells transfected with human B1R; Lys-Des-Arg9-bradykinin at EC80; Ca2+ influx (Fluo-4, FLIPR); read-out: B1R antagonism, human [10 μM] % inhibition
T1 construct: expressed in transfected cells; host or cells: CHO K1 cells
T1 sequence (P46663 1-353): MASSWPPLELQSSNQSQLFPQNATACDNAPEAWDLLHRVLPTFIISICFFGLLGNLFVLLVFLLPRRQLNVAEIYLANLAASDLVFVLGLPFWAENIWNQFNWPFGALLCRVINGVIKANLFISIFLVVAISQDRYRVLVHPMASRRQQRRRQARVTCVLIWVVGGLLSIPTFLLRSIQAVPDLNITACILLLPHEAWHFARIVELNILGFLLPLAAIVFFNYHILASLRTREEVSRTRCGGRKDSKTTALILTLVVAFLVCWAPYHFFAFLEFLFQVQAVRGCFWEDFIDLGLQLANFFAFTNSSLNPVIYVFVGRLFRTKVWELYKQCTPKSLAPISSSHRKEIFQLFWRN
Excerpt: Functional Study on the Human Bradykinin Receptor 1 (B1R)
(§1) The agonistic or antagonistic action of substances can be determined on the bradykinin receptor 1 (B1R) of the species human and rat using the following assay. According to this assay, the Ca^2+ influx through the channel is quantified with the aid of a Ca^2+-sensitive dye (Fluo-4 type, Molecular Probes Europe BV, Leiden, Netherlands) using a Fluorescent Imaging Plate Reader (FLIPR, Molecular Devices, Sunnyvale, USA).
(§2) Chinese hamster ovary cells (CHO K1 cells) which have been stably transfected with the human B1R gene (hB1R cells) or with the B1R gene of the rat (rB1R cells) are used. For functional studies, the cells are plated out on black 96-well plates having a clear base (BD Biosciences, Heidelberg, Germany or Greiner, Frickenhausen, Germany) in a density of 20,000-35,000 cells/well. The cells are incubated overnight at 37° C. and with 5% CO2 in culture medium (hB1R cells: Nutrient Mixture Ham's F12, Gibco Invitrogen GmbH, Karlsruhe, Germany or DMEM, Sigma-Aldrich, Taufkirchen, Germany; rB1R cells: D-MEM/F12, Gibco Invitrogen GmbH, Karlsruhe, Germany), with 10 vol. % FBS (fetal bovine serum, Gibco Invitrogen GmbH, Karlsruhe, Germany or PAN Biotech GmbH, Aidenbach, Germany).
(§3) On the following day, the cells are loaded for 60 minutes at 37° C. with 2.13 μM Fluo-4 (Molecular Probes Europe BV, Leiden, Netherlands) in HBSS buffer (Hank's buffered saline solution, Gibco Invitrogen GmbH, Karlsruhe, Germany) with 2.5 mM probenecid (Sigma-Aldrich, Taufkirchen, Germany) and 10 mM HEPES (Sigma-Aldrich, Taufkirchen, Germany). The plates are then washed twice with HBSS buffer, and HBSS buffer additionally containing 0.1% BSA (bovine serum albumin; Sigma-Aldrich, Taufkirchen, Germany), 5.6 mM glucose and 0.05% gelatin (Merck KGaA, Darmstadt, Germany) is added to the plates. After incubation for a further 20 minutes at room temperature, the plates are inserted into the FLIPR for Ca^2+ measurement. Alternatively, washing is carried out with buffer A (15 mM HEPES, 80 mM NaCl, 5 mM KCl, 1.2 mM CaCl2, 0.7 mM MgSO4, 2 g/l glucose, 2.5 mM probenecid) followed by loading with buffer A with added 2.5 μM Fluo-4 and 0.025% Pluronic F127 (Sigma-Aldrich, Taufkirchen, Germany). The cells are then washed twice with buffer A and incubated for 30 minutes at room temperature with buffer A additionally containing 0.05% BSA and 0.05% gelatin and are then inserted into the FLIPR for Ca^2+ measurement.
(§4) The Ca^2+-dependent fluorescence is measured before and after the addition of substances (λex=488 nm, λem=540 nm). Quantification is carried out by measuring the highest fluorescence intensity (FC, fluorescence counts) over time.
(§5) The FLIPR protocol consists of two substance additions. Test substances (10 μM) are first pipetted onto the cells and the Ca^2+ influx is compared with the control (hB1R: Lys-Des-Arg^9-bradykinin>=0.5 nM; rB1R: Des-Arg^9-bradykinin 10 μM). This gives the activation in %, based on the Ca^2+ signal after addition of Lys-Des-Arg^9-bradykinin (>=0.5 nM) or Des-Arg^9-bradykinin (10 μM).
(§6) After 10-20 minutes' incubation, Lys-Des-Arg^9-bradykinin (hB1R) or Des-Arg^9-bradykinin (rB1R) is applied in the concentration of the EC80, and the influx of Ca^2+ is likewise determined.
(§7) Antagonists lead to suppression of the Ca^2+ influx. The % inhibition compared with the maximum achievable inhibition is calculated.
(§8) In order to determine the IC50 value, the substances are added in various concentrations. Duplicate or triplicate determinations (n=2 or n=3) are carried out, and these are repeated in at least one further independent experiment (N>=2).

| Compound | inhibition at 10 µM |
| --- | --- |
| COc1ccc(S(=O)(=O)N2CCc3ccccc3C2CC(=O)NC2CCC(C(c3ccccc3)N(C)C)CC2)cc1 (centres unmarked) [Example 9, N-[4-(dimethylamino-phenyl-methyl)-cyclohexyl]-2-[2-(4-methoxy-benzenesulfonyl)-1,2,3,4-tetrahydro-isoquinolin-1-yl]-acetamide] | 105% |
| CN(C)C(c1ccccc1)C1CCC(NC(=O)CC2c3ccccc3CCN2S(=O)(=O)c2ccc(Cl)c(Cl)c2)CC1 (centres unmarked) [Example 10, 2-[2-(3,4-dichloro-benzenesulfonyl)-1,2,3,4-tetrahydro-isoquinolin-1-yl]-N-[4-(dimethylamino-phenyl-methyl)-cyclohexyl]-acetamide] | 70.1% |

target: T2, bradykinin receptor 1 (B1R) of the rat (Rattus norvegicus, UniProt P97583); experiment: Functional study on the bradykinin receptor 1 (B1R), rat: FLIPR Ca2+ influx assay; type: cell-based; details: test substance 10 μM; CHO K1 cells transfected with rat B1R; Des-Arg9-bradykinin at EC80; Ca2+ influx (Fluo-4, FLIPR); read-out: B1R antagonism, rat [10 μM] % inhibition
T2 construct: expressed in transfected cells; host or cells: CHO K1 cells
T2 sequence (P97583 1-337): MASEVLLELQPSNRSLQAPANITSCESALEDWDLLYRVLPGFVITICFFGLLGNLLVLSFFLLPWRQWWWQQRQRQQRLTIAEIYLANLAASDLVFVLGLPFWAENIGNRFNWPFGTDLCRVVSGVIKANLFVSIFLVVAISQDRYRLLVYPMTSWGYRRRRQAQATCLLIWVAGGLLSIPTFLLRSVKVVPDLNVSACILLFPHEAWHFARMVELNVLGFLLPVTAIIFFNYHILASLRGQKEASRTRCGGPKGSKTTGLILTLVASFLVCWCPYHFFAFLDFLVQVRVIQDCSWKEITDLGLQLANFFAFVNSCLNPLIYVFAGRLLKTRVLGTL
Excerpt: as §1, §2, §3, §4, §5, §6, §7, §8

| Compound | inhibition at 10 µM |
| --- | --- |
| COc1ccc(S(=O)(=O)N2CCc3ccccc3C2CC(=O)NC2CCC(C(c3ccccc3)N(C)C)CC2)cc1 (centres unmarked) [Example 9, N-[4-(dimethylamino-phenyl-methyl)-cyclohexyl]-2-[2-(4-methoxy-benzenesulfonyl)-1,2,3,4-tetrahydro-isoquinolin-1-yl]-acetamide] | 0% |
| CN(C)C(c1ccccc1)C1CCC(NC(=O)CC2c3ccccc3CCN2S(=O)(=O)c2ccc(Cl)c(Cl)c2)CC1 (centres unmarked) [Example 10, 2-[2-(3,4-dichloro-benzenesulfonyl)-1,2,3,4-tetrahydro-isoquinolin-1-yl]-N-[4-(dimethylamino-phenyl-methyl)-cyclohexyl]-acetamide] | 0% |
| CN(C)C(c1ccccc1)C1CCC(NC(=O)c2c(N(C)S(=O)(=O)c3ccc(Cl)c(Cl)c3)sc3c2CCCC3)CC1 (centres unmarked) [Example 12, 2-[(3,4-dichloro-benzenesulfonyl)-methyl-amino]-4,5,6,7-tetrahydrobenzo[b]thiophene-3-carboxylic acid [4-(dimethylamino-phenyl-methyl)cyclohexyl]-amide] | 0% |
| CN(C)C(c1cccs1)C1CCC(CNC(=O)c2ccccc2N(C)S(=O)(=O)c2ccc(Cl)c(Cl)c2)CC1 (centres unmarked) [Example 42, 2-[(3,4-dichloro-benzenesulfonyl)-methyl-amino]-N-[4-(dimethylamino-thiophen-2-yl-methyl)-cyclohexylmethyl]-benzamide] | 3% |
| CN(C)C(c1ccccc1)C1CCC(CNC(=O)c2c(N(C)S(=O)(=O)c3ccc(Cl)c(Cl)c3)sc3c2CCCC3)CC1 (centres unmarked) [Example 46, 2-[(3,4-dichloro-benzenesulfonyl)-methyl-amino]-4,5,6,7-tetrahydrobenzo[b]thiophene-3-carboxylic acid [4-(dimethylamino-phenyl-methyl)cyclohexylmethyl]-amide] | -9% |
| CN(C)C(c1ccc(F)cc1)C1CCC(CNC(=O)c2c(N(C)S(=O)(=O)c3ccc(Cl)c(Cl)c3)sc3c2CCCC3)CC1 (centres unmarked) [Example 47, 2-[(3,4-dichloro-benzenesulfonyl)-methyl-amino]-4,5,6,7-tetrahydrobenzo[b]thiophene-3-carboxylic acid {4-[dimethylamino-(4-fluoro-phenyl)methyl]-cyclohexylmethyl}-amide] | 12% |
| CN(C)C(c1ccc(Cl)cc1)C1CCC(CNC(=O)c2c(N(C)S(=O)(=O)c3ccc(Cl)c(Cl)c3)sc3c2CCCC3)CC1 (centres unmarked) [Example 48, 2-[(3,4-dichloro-benzenesulfonyl)-methyl-amino]-4,5,6,7-tetrahydrobenzo[b]thiophene-3-carboxylic acid {4-[(4-chloro-phenyl)-dimethylamino-methyl]-cyclohexylmethyl}-amide] | 19% |
| CN(C)C(c1cccs1)C1CCC(CNC(=O)c2c(N(C)S(=O)(=O)c3ccc(Cl)c(Cl)c3)sc3c2CCCC3)CC1 (centres unmarked) [Example 49, 2-[(3,4-dichloro-benzenesulfonyl)-methyl-amino]-4,5,6,7-tetrahydrobenzo[b]thiophene-3-carboxylic acid [4-(dimethylamino-thiophen-2-yl-methyl)cyclohexylmethyl]-amide] | 19% |
| CN(C)C(c1ccc(Cl)cc1)C1CCC(CCNC(=O)c2c(N(C)S(=O)(=O)c3ccc(Cl)c(Cl)c3)sc3c2CCCC3)CC1 (centres unmarked) [Example 50, N-(2-(4-((4-chlorophenyl)(dimethylamino)methyl)cyclohexyl)ethyl)-2-(3,4-dichloro-N-methylphenylsulfonamido)-4,5,6,7-tetrahydrobenzo[b]thiophene-3-carboxamide] | 11% |
| CN(C)C(c1cccc(F)c1)C1CCC(CCNC(=O)c2c(N(C)S(=O)(=O)c3ccc(Cl)c(Cl)c3)sc3c2CCCC3)CC1 (centres unmarked) [Example 51, 2-(3,4-dichloro-N-methylphenylsulfonamido)-N-(2-(4-((dimethylamino)(3-fluorophenyl)methyl)cyclohexyl)ethyl)-4,5,6,7-tetrahydrobenzo[b]thiophene-3-carboxamide] | 1% |
| CN(C)C(c1ccc(F)cc1)C1CCC(CCNC(=O)c2c(N(C)S(=O)(=O)c3ccc(Cl)c(Cl)c3)sc3c2CCCC3)CC1 (centres unmarked) [Example 52, 2-(3,4-dichloro-N-methylphenylsulfonamido)-N-(2-(4-((dimethylamino)(4-fluorophenyl)methyl)cyclohexyl)ethyl)-4,5,6,7-tetrahydrobenzo[b]thiophene-3-carboxamide] | -22% |
| CN(C)C(c1cccs1)C1CCC(CCNC(=O)c2c(N(C)S(=O)(=O)c3ccc(Cl)c(Cl)c3)sc3c2CCCC3)CC1 (centres unmarked) [Example 53, 2-(3,4-dichloro-N-methylphenylsulfonamido)-N-(2-(4-((dimethylamino)(thiophen-2-yl)methyl)cyclohexyl)ethyl)-4,5,6,7-tetrahydrobenzo[b]thiophene-3-carboxamide] | 12% |
| CN(C)C(c1ccc(F)cc1)C1CCC(NC(=O)C2Cc3ccccc3N2S(=O)(=O)c2ccc(Cl)c(Cl)c2)CC1 (centres unmarked) [Example 94, 1-(3,4-dichlorophenylsulfonyl)-N-(4-((dimethylamino)(4-fluorophenyl)methyl)cyclohexyl)indoline-2-carboxamide] | -19% |
| CN(C)C(CCc1ccccc1)C1CCC(CNC(=O)C2Cc3ccccc3N2S(=O)(=O)c2ccc(Cl)c(Cl)c2)CC1 (centres unmarked) [Example 96, 1-(3,4-dichlorophenylsulfonyl)-N-((4-(1-(dimethylamino)-3-phenylpropyl)cyclohexyl)methyl)indoline-2-carboxamide] | 12% |
| COc1ccc(S(=O)(=O)N(C)C2(C(=O)NCCC3CCC(C(c4ccccc4)N(C)C)CC3)CCCCC2)cc1 (centres unmarked) [Example 100, N-(2-(4-((dimethylamino)(phenyl)methyl)cyclohexyl)ethyl)-1-(4-methoxy-N-methylphenylsulfonamido)cyclohexanecarboxamide] | -2% |
